Calls of active or inactive are those of the source. No cut-off for these calls is given here.
Legend:
[1] = Inhibition of PKC
Artemia = test: Toxicity in brine shrimp; type: organism-based; conditions: in vivo

## CC(=O)OC[C@]12[C@H](O)[C@H](OC(=O)c3cccnc3)[C@@H]3[C@@H](OC(C)=O)[C@@]14O[C@@]3(C)COC(=O)c1cccnc1[C@@H](C)[C@H](C)C(=O)O[C@@H]([C@H](OC(C)=O)[C@@H]2OC(C)=O)[C@]4(C)O [PUTTERINE A]
[1]
  inhibition: inactive
Artemia
  Activity: Toxic

## CC(=O)OC[C@]12[C@H](O)[C@H](OC(=O)c3cccnc3)[C@@H]3[C@@H](OC(C)=O)[C@@]14O[C@@]3(C)COC(=O)c1cccnc1[C@@H](C)[C@H](C)C(=O)O[C@@H]([C@H](OC(=O)C(C)C)[C@@H]2OC(C)=O)[C@]4(C)O [PUTTERINE B]
[1]
  inhibition: inactive
Artemia
  Activity: Toxic
